Test results as given in patent EP0908457B1, “3-(1,2-benzisothiazol- and isoxazol-5-Y1)-2,4(1H,3H)-pyrimidinedione or thione and 3-(1,2-benzisothiazol- and isoxazol-5-y1)-4(3H)-pyrimidinone or thione herbicidal agents” (BASF AKTIENGESELLSCHAFT, priority 1997, dated 1999).

Key:
[1] = system: Echinochloa oryzoides (Ard.) Fritsch.; assay: Preemergence weed control under flooded paddy conditions, ECHORC (Watergrass (Calif.)); type: in vivo; conditions: flooded paddy; for ECHORC: herbicidal effect rating 0-9, three to four weeks after treatment; on herbicidal effect rating, ECHORC: meaning of each grade not given here
[2] = system: Monochoria vaginalis, Presl.; assay: Preemergence weed control under flooded paddy conditions, MOOVA (Monochoria); type: in vivo; conditions: flooded paddy; for MOOVA: herbicidal effect rating 0-9, three to four weeks after treatment; on herbicidal effect rating, MOOVA: meaning of each grade not given here
[3] = system: Sagittaria pygmaea, L.; assay: Preemergence weed control under flooded paddy conditions, SAGPY (Arrowhead (Pygmaea)); type: in vivo; conditions: flooded paddy; for SAGPY: herbicidal effect rating 0-9, three to four weeks after treatment; on herbicidal effect rating, SAGPY: meaning of each grade not given here
[4] = system: Cyperus iria; assay: Preemergence weed control under flooded paddy conditions, CYPIR (Rice Flatsedge); type: in vivo; conditions: flooded paddy; for CYPIR: herbicidal effect rating 0-9, three to four weeks after treatment; on herbicidal effect rating, CYPIR: meaning of each grade not given here
[5] = system: Cyperus serotinus, Rottb.; assay: Preemergence weed control under flooded paddy conditions, CYPSE (Flatsedge); type: in vivo; conditions: for CYPSE: herbicidal effect rating 0-9, three to four weeks after treatment; on herbicidal effect rating, CYPSE: meaning of each grade not given here
[6] = system: Oryza sativa, (L.) Tebonnet; assay: Rice tolerance to post-transplant applications under flooded paddy conditions (Example 187), ORYSAT (Rice, Tebonnet); conditions: for ORYSAT: herbicidal effect rating 0-9, three to four weeks after treatment; on herbicidal effect rating ORYSAT: meaning of each grade not given here
[7] = Rate 0.0320 kg/ha, preemergence, rated three to four weeks after treatment
[8] = Rate 0.0620 kg/ha, preemergence, rated three to four weeks after treatment
[9] = Rate 0.1250 kg/ha, preemergence, rated three to four weeks after treatment
[10] = Rate 0.2500 kg/ha, preemergence, rated three to four weeks after treatment
[11] = Rate 0.5000 kg/ha, preemergence, rated three to four weeks after treatment
[12] = Rate 0.0320 kg/ha, rated three to four weeks after treatment
[13] = Rate 0.0620 kg/ha, rated three to four weeks after treatment
[14] = Rate 0.1250 kg/ha, rated three to four weeks after treatment
[15] = Rate 0.2500 kg/ha, rated three to four weeks after treatment
[16] = Rate 0.0320 kg/ha, preemergence, rated 3-4 weeks after treatment
[17] = Rate 0.0620 kg/ha, preemergence, rated 3-4 weeks after treatment
[18] = Rate 0.1250 kg/ha, preemergence, rated 3-4 weeks after treatment
[19] = Rate 0.2500 kg/ha, preemergence, rated 3-4 weeks after treatment
[20] = Rate 0.5000 kg/ha, preemergence, rated 3-4 weeks after treatment
[21] = 0.0313 kg/ha, preemergence, rated three to four weeks after treatment
[22] = 0.0625 kg/ha, preemergence, rated three to four weeks after treatment
[23] = 0.1250 kg/ha, preemergence, rated three to four weeks after treatment
[24] = 0.2500 kg/ha, preemergence, rated three to four weeks after treatment
[25] = Rate 0.0320 kg/ha, preemergence weeds, rated three to four weeks after treatment
[26] = Rate 0.0620 kg/ha, preemergence weeds, rated three to four weeks after treatment
[27] = Rate 0.1250 kg/ha, preemergence weeds, rated three to four weeks after treatment
[28] = Rate 0.2500 kg/ha, preemergence weeds, rated three to four weeks after treatment
[29] = 0.0320 kg/ha, preemergence, rated three to four weeks after treatment
[30] = 0.0620 kg/ha, preemergence weeds
[31] = 0.1250 kg/ha, preemergence weeds
[32] = 0.2500 kg/ha, preemergence weeds

C=Cc1nsc2ccc(-n3c(=O)cc(C(F)(F)F)n(C)c3=O)cc12 [Example 276, 2,4(1H,3H)-Pyrimidinedione, 1-methyl-6-(trifluoromethyl)-3-(3-vinyl-1,2-benzisothiazol-5-yl)-]
ECHORC herbicidal effect rating [1, 7]: 4.0 | ECHORC herbicidal effect rating [1, 8]: 7.7 | ECHORC herbicidal effect rating [1, 9]: 7.9 | ECHORC herbicidal effect rating [1, 10]: 9.0 | ECHORC herbicidal effect rating [1, 11]: 9.0 | MOOVA herbicidal effect rating [2, 7]: 9.0 | MOOVA herbicidal effect rating [2, 8]: 9.0 | MOOVA herbicidal effect rating [2, 9]: 9.0 | MOOVA herbicidal effect rating [2, 10]: 9.0 | MOOVA herbicidal effect rating [2, 11]: 9.0 | SAGPY herbicidal effect rating [3, 7]: 8.0 | SAGPY herbicidal effect rating [3, 8]: 9.0 | SAGPY herbicidal effect rating [3, 9]: 9.0 | SAGPY herbicidal effect rating [3, 10]: 9.0 | SAGPY herbicidal effect rating [3, 11]: 9.0 | CYPIR herbicidal effect rating [4, 7]: 8.0 | CYPIR herbicidal effect rating [4, 8]: 9.0 | CYPIR herbicidal effect rating [4, 9]: 9.0 | CYPIR herbicidal effect rating [4, 10]: 9.0 | CYPIR herbicidal effect rating [4, 11]: 9.0 | CYPSE herbicidal effect rating [5, 7]: 2.0 | CYPSE herbicidal effect rating [5, 8]: 2.0 | CYPSE herbicidal effect rating [5, 9]: 8.0 | CYPSE herbicidal effect rating [5, 10]: 7.0 | CYPSE herbicidal effect rating [5, 11]: 7.0 | ORYSAT herbicidal effect rating [6, 12]: 4.0 | ORYSAT herbicidal effect rating [6, 13]: 5.0 | ORYSAT herbicidal effect rating [6, 14]: 6.0 | ORYSAT herbicidal effect rating [6, 15]: 7.0 | ORYSAT herbicidal effect rating ([6]; Rate 0.5000 kg/ha, rated three to four weeks after treatment): 9.0

Cc1ccc(OC(C)(C)C(=O)OCCCl)c(-c2nsc3ccc(-n4c(=O)cc(C(F)(F)F)n(C)c4=O)cc23)c1 [Example 544, Propionic acid, 2-{{2-{5-[3,6-dihydro-3-methyl-2,6-dioxo-4-(trifluoromethyl)-1(2H)-pyrimidinyl]-1,2-benzisothiazol-3-yl}-p-tolyl}oxy}-2-methyl-, 2-chloroethyl ester]
herbicidal effect rating, ECHORC [1, 16]: 5.4 | herbicidal effect rating, ECHORC [1, 17]: 5.6 | herbicidal effect rating, ECHORC [1, 18]: 6.4 | herbicidal effect rating, ECHORC [1, 19]: 9.0 | herbicidal effect rating, ECHORC [1, 20]: 9.0 | herbicidal effect rating, MOOVA [2, 16]: 9.0 | herbicidal effect rating, MOOVA [2, 17]: 9.0 | herbicidal effect rating, MOOVA [2, 18]: 9.0 | herbicidal effect rating, MOOVA [2, 19]: 9.0 | herbicidal effect rating, MOOVA [2, 20]: 9.0 | herbicidal effect rating, SAGPY [3, 16]: 7.0 | herbicidal effect rating, SAGPY [3, 17]: 4.0 | herbicidal effect rating, SAGPY [3, 18]: 8.0 | herbicidal effect rating, SAGPY [3, 19]: 9.0 | herbicidal effect rating, SAGPY [3, 20]: 9.0 | herbicidal effect rating, CYPIR [4, 16]: 9.0 | herbicidal effect rating, CYPIR [4, 17]: 9.0 | herbicidal effect rating, CYPIR [4, 18]: 9.0 | herbicidal effect rating, CYPIR [4, 19]: 9.0 | herbicidal effect rating, CYPIR [4, 20]: 9.0 | herbicidal effect rating, CYPSE [5, 16]: 9.0 | herbicidal effect rating, CYPSE [5, 18]: 7.0 | herbicidal effect rating, CYPSE [5, 19]: 9.0 | herbicidal effect rating, CYPSE [5, 20]: 4.0 | herbicidal effect rating ORYSAT ([6]; Rate 0.0320 kg/ha, rated 3-4 weeks after treatment): 4.0 | herbicidal effect rating ORYSAT ([6]; Rate 0.0620 kg/ha, rated 3-4 weeks after treatment): 9.0 | herbicidal effect rating ORYSAT ([6]; Rate 0.1250 kg/ha, rated 3-4 weeks after treatment): 9.0 | herbicidal effect rating ORYSAT ([6]; Rate 0.2500 kg/ha, rated 3-4 weeks after treatment): 9.0 | herbicidal effect rating ORYSAT ([6]; Rate 0.5000 kg/ha, rated 3-4 weeks after treatment): 8.0

COc1cc(C)c(C)c(C)c1-c1nsc2ccc(-n3c(=O)cc(C(F)(F)F)n(C)c3=O)cc12 [Example 34, 3-[3-(6-Methoxy-2,3,4-trimethylphenyl)-1,2-benzisothiazol-5-yl]-1-methyl-6-(trifluoromethyl)-2,4(1H,3H)-pyrimidinedione]
herbicidal effect rating, ECHORC [1, 21]: 2.0 | herbicidal effect rating, ECHORC [1, 22]: 2.5 | herbicidal effect rating, ECHORC [1, 23]: 3.5 | herbicidal effect rating, ECHORC [1, 24]: 4.5 | herbicidal effect rating, MOOVA [2, 21]: 0.0 | herbicidal effect rating, MOOVA [2, 22]: 0.0 | herbicidal effect rating, MOOVA [2, 23]: 0.0 | herbicidal effect rating, MOOVA [2, 24]: 0.0 | herbicidal effect rating, SAGPY [3, 21]: 0.0 | herbicidal effect rating, SAGPY [3, 22]: 0.0 | herbicidal effect rating, SAGPY [3, 23]: 0.0 | herbicidal effect rating, SAGPY [3, 24]: 0.0 | herbicidal effect rating, CYPIR [4, 21]: 0.0 | herbicidal effect rating, CYPIR [4, 22]: 0.0 | herbicidal effect rating, CYPIR [4, 23]: 0.0 | herbicidal effect rating, CYPIR [4, 24]: 0.0 | herbicidal effect rating, CYPSE [5, 21]: 0.0 | herbicidal effect rating, CYPSE [5, 22]: 0.0 | herbicidal effect rating, CYPSE [5, 23]: 0.0 | herbicidal effect rating, CYPSE [5, 24]: 0.0 | herbicidal effect rating, ORYSAT (rice tolerance) ([6]; 0.0313 kg/ha, rated three to four weeks after treatment): 0.0 | herbicidal effect rating, ORYSAT (rice tolerance) ([6]; 0.0625 kg/ha, rated three to four weeks after treatment): 0.0 | herbicidal effect rating, ORYSAT (rice tolerance) ([6]; 0.1250 kg/ha, rated three to four weeks after treatment): 0.0 | herbicidal effect rating, ORYSAT (rice tolerance) ([6]; 0.2500 kg/ha, rated three to four weeks after treatment): 0.0

Cn1c(C(F)(F)F)cc(=O)n(-c2ccc3snc(C(=O)NS(=O)(=O)Cc4ccccc4)c3c2)c1=O [Example 341, 1,2-Benzisothiazole-3-carboxamide, N-(benzylsulfonyl)-5-[3,6-dihydro-3-methyl-2,6-dioxo-4-(trifluoromethyl)-1(2H)-pyrimidinyl]-]
herbicidal effect rating, ECHORC [1, 25]: 3.0 | herbicidal effect rating, ECHORC [1, 26]: 5.5 | herbicidal effect rating, ECHORC [1, 27]: 8.0 | herbicidal effect rating, ECHORC [1, 28]: 8.5 | herbicidal effect rating, MOOVA [2, 25]: 7.0 | herbicidal effect rating, MOOVA [2, 26]: 9.0 | herbicidal effect rating, MOOVA [2, 27]: 9.0 | herbicidal effect rating, MOOVA [2, 28]: 9.0 | herbicidal effect rating, SAGPY [3, 25]: 1.0 | herbicidal effect rating, SAGPY [3, 26]: 4.5 | herbicidal effect rating, SAGPY [3, 27]: 4.5 | herbicidal effect rating, SAGPY [3, 28]: 4.5 | herbicidal effect rating, CYPIR [4, 25]: 1.0 | herbicidal effect rating, CYPIR [4, 26]: 2.0 | herbicidal effect rating, CYPIR [4, 27]: 3.5 | herbicidal effect rating, CYPIR [4, 28]: 4.0 | herbicidal effect rating, CYPSE [5, 25]: 0.0 | herbicidal effect rating, CYPSE [5, 26]: 0.0 | herbicidal effect rating, CYPSE [5, 27]: 2.5 | herbicidal effect rating, CYPSE [5, 28]: 3.5 | herbicidal effect rating ORYSAT [6, 12]: 1.5 | herbicidal effect rating ORYSAT [6, 13]: 2.5 | herbicidal effect rating ORYSAT [6, 14]: 3.0 | herbicidal effect rating ORYSAT [6, 15]: 3.5

COC(=O)COc1ccc(I)cc1-c1nsc2ccc(-n3c(=O)cc(C(F)(F)F)n(C)c3=O)cc12 [Example 459, Acetic acid, {2-{5-[3,6-dihydro-3-methyl-2,6-dioxo-4-(trifluoromethyl)-1(2H)-pyrimidinyl]-1,2-benzisothiazol-3-yl}-4-iodophenoxy}-, methyl ester]
ECHORC herbicidal rating [1, 29]: 7.0 | ECHORC [1, 30]: 7.0 | ECHORC [1, 31]: 9.0 | ECHORC [1, 32]: 9.0 | MOOVA herbicidal rating [2, 29]: 3.0 | MOOVA [2, 30]: 5.0 | MOOVA [2, 31]: 7.0 | MOOVA [2, 32]: 7.0 | SAGPY herbicidal rating [3, 29]: 0.0 | SAGPY [3, 30]: 0.0 | SAGPY [3, 31]: 0.0 | SAGPY [3, 32]: 0.0 | CYPIR herbicidal rating [4, 29]: 0.0 | CYPIR [4, 30]: 2.0 | CYPIR [4, 31]: 4.0 | CYPIR [4, 32]: 4.0 | CYPSE herbicidal rating [5, 29]: 0.0 | CYPSE [5, 30]: 0.0 | CYPSE [5, 31]: 0.0 | CYPSE [5, 32]: 3.0 | ORYSAT herbicidal rating (rice tolerance) ([6]; 0.0320 kg/ha, rated three to four weeks after treatment): 2.0 | ORYSAT ([6]; 0.0620 kg/ha): 4.0 | ORYSAT ([6]; 0.1250 kg/ha): 5.0 | ORYSAT ([6]; 0.2500 kg/ha): 5.0
